In patent US8629242B2, “Methods of inhibiting calcineurin with ApoE analogs” (Cognosci, Inc., priority 2007, dated 2014):

Columns and labels:
calcineurin (PP2B) = biological target: T1, calcineurin (PP2B) (Homo sapiens, UniProt Q08209); assay: Immunoprecipitation with biotin-COG 133 conjugate, blot probed for calcineurin; format: binding; conditions: human brain lysate or primary glial culture; biotin-COG 133 bead conjugate
T1 construct: from tissue; host or cells: human brain lysate
Experimental: FIG. 14. ApoE analogs bind directly to calcineurin and inhibit its activity. […] (B) Immunoprecipitation of human brain lysate with a biotin-COG 133 conjugate. Lane 1=markers; lane 2=clear bead; lane 3=biotin-COG 133 bead conjugate; and lane 4=10 μg lysate. (C) Immunoprecipitation of different glial cultures with a biotin-COG 133 conjugate. Lane 1=markers; lane 2=astrocyte; lane 3=microglia; and lane 4=oligodendrocyte precursor cells (OPC). Blots in B and C were probed for calcineurin (PP2B).
Calcineurin activity was measured in a cell-free in vitro assay in the presence of various concentrations of COG 133 (SEQ ID NO: 1), COG 112 (SEQ ID NO: 5), COG 68 (SEQ ID NO: 7), COG 125 (Ac-AS(Aib)LRKL(Aib)KR—COOH; SEQ ID NO: 8), or antennapedia (antp), the prefix peptide for COG 112. […] Using a BioMol Calcineurin Phosphatase Activity Kit (Cat. #AK-804), the assay was conducted according to manufacturer's instructions. […] This inhibition of calcineurin activity by ApoE analogs is mediated by a direct interaction of the ApoE analog with the phosphatase.

sciatic nerve crush = assay: Sciatic nerve crush model; format: in vivo, C57BL/6J male mice; conditions: 1 mg/kg i.p. daily
Experimental: FIG. 13. COG 112 attenuates axonal neurodegeneration and promotes functional recovery after sciatic nerve crush. C57BL mice were subjected to sciatic nerve crush on left hindlimb using a number 5 jeweler's forceps. The animals received lactated Ringer's buffer or COG 112 (1 mg/kg) by i.p. 2 hr after crush followed by daily dose for 14 days. (A) To assess functional deficits after nerve crush, footprints were recorded and the Sciatic Functional Index (SFI) was calculated. […] Treatment with COG 112 also robustly augmented the mRNA expression of peripheral myelin marker P0 (B) and axonal regeneration marker GAP43 (C) quantified by real-time PCR. **P<0.01; P<0.001. (D) On day 4 after injury, the sciatic nerves were dissected and stained with FD NeuroSilver kit to reveal degenerating axons manifested as dotted lines as depicted in the schematic above the micrographs.
We used a sciatic nerve crush model to investigate whether ApoE analogs can prevent functional loss and/or promote functional recovery after nerve injury. C57BL/6J male mice were anesthetized and the sciatic nerve on left hindlimb was crushed with Number 5 Jeweler's forceps at mid-thigh level for 30 seconds. The animals were then randomly assigned to receive either COG 112 (1 mg/kg, i.p.) or lactated Ringer's buffer two hours after crush followed by daily dose for 14 days. On day 4, two animals from each group were sacrificed and crushed sciatic nerves were dissected and silver stained using a FD NeuroSilver® staining kit to reveal degenerating axons.
On day 7 and 14, footprints for each animal were taken for quantitative assessment of hindlimb motor function. A Sciatic Functional Index (SFI), which takes into account the relationship between toes and feet of an animal's hindlimb, was calculated for each animal as previously described (Bain et al. (1989) Plast. Reconstr. Surg., Vol. 83(1):129-38). SFI values of zero and […] indicate normal and complete dysfunction, respectively.
In order to examine the effect of COG 112 on remyelination and regeneration of axons, segments of sciatic nerves spanning the crushed sites were dissected and collected on day 3, 7 and 14 for examination of P0, a marker of peripheral myelination, and growth associated protein 43 (GAP43), a marker of axonal regeneration, mRNA by real time PCR.

[1] = test system: NFAT translocation in BV2 cells; assay: LPS-induced NFAT translocation in BV2 cells; format: cell-based, murine; conditions: 2 μM, LPS 10 ng/mL, 15 min
Description: FIG. 15. ApoE analog inhibits LPS-induced NFAT translocation. Murine microglial cell line, BV2 cells were stimulated with LPS in the presence or absence of COG 112. NFAT (green signal) and nuclear label (red signal). (A) Untreated cultures; (B) LPS-treated cultures; (C) LPS+COG 112-treated cultures; (D) NFAT translocation was quantified by the fluorescence intensity of green fluorescence in the nucleus defined by yellow area.
Calcineurin dephosphorylates the transcription factor NFAT, which leads to its activation and translocation to the nucleus. Activation of calcineurin and subsequent activation of NFAT is induced by inflammatory stimuli. To further examine the effect of ApoE analogs on calcineurin signaling, murine microglial cell line, BV2 cells were stimulated with LPS (10 ng/mL) in the absence and presence of COG 112 (2 μM). After incubation for 15 min at 37° C., the cells were washed and fixed with 4% formaldehyde. After staining with 1/100 anti-NFAT antibody coupled with Alexaflour and then counterstained with hoescht nuclear dye, NFAT translocation was quantified by the fluorescence intensity of Alexaflour in the nucleus.

[2] = test system: 175 kdyn contusive spinal cord injury; assay: Contusive spinal cord injury; format: in vivo, Sprague-Dawley rats; conditions: 1 mg/kg
Experimental: FIG. 12. COG 112 reduces the size of the lesion in white matter after spinal cord injury by inhibition of microglia activation. Rats received 175 kdyn contusive spinal cord injury and subsequent treatment with saline or COG 112 starting immediately after injury for 1 week. The injured area and spared white matter from the injured spinal cord were evaluated and quantified by luxol fast blue (LFB) staining area (top left panel). Activation of microglia was examined by staining adjacent sections with an ED1 antibody (bottom left panel). […] Scale bar=1000 μm. Similar to MS, spinal cord injury (SCI) is another devastating neurological disorder manifested as massive demyelination in the white matter of the spinal cord and extensive microglial activation surrounding the injured site. To examine the therapeutic effect of ApoE analogs on spinal cord injury, COG 112 (SEQ ID NO: 5) was administered to rats immediately after a contusive spinal cord injury. […] The second dose of COG 112 or vehicle was given i.v. 5 hours later followed by daily i.p. doses for 7 days. The animals were sacrificed on day 7 and the spinal cord spanning the injured site was subjected to histological examination. The injured area and spared white matter of the spinal cord were evaluated by Luxol Fast blue (LFB) staining. Activation of microglia was examined by staining adjacent sections with an antibody to ED1. […] Most impressively, about 50% of spared tissue remained at the epicenter of COG 112-treated animals, while only 15% remained in control animals. […] The microglia surrounding the injured spinal cord were robustly activated as shown by ED1-immunoreactivity 7 days after contusion (FIG. 12, bottom panels).

Row | Compound | binding of calcineurin (PP2B) in immunoprecipitates (calcineurin (PP2B)) | expression of GAP43 mRNA (real time PCR) (sciatic nerve crush; 2 weeks) | expression of P0 mRNA (real time PCR) (sciatic nerve crush; 2 weeks) | functional recovery (Sciatic Functional Index) (sciatic nerve crush; 2 weeks, vs vehicle, P<0.001) | axonal degeneration (silver staining) (sciatic nerve crush; day 4) | NFAT translocation to the nucleus [1] | ED1 immunoreactive area in the injured spinal cord (microglia activation) ([2]; 7 days after contusion) | spared tissue remaining at the epicenter ([2]; day 7, control animals 15%) | percentage of spared white matter to total spinal cord area ([2]; day 7, epicenter to 2.4 mm rostral or caudal, vs saline)
1 | CC(=O)N[C@@H](CC(C)C)C(=O)N[C@@H](CCCNC(=N)N)C(=O)N[C@H](C(=O)N[C@@H](CCCNC(=N)N)C(=O)N[C@@H](CC(C)C)C(=O)N[C@@H](C)C(=O)N[C@@H](CO)C(=O)N[C@@H](Cc1c[nH]cn1)C(=O)N[C@@H](CC(C)C)C(=O)N[C@@H](CCCNC(=N)N)C(=O)N[C@@H](CCCCN)C(=O)N[C@@H](CC(C)C)C(=O)N[C@@H](CCCNC(=N)N)C(=O)N[C@@H](CCCCN)C(=O)N[C@@H](CCCNC(=N)N)C(=O)N[C@@H](CC(C)C)C(=O)N[C@@H](CC(C)C)C(N)=O)C(C)C [COG 133] | bound |  |  |  |  |  |  |  | 
2 | Ac-RQIKIWFQNRRMKWKKCLRVRLASHLRKLRKRLL-NH2 [COG 112] |  | robustly increased | robustly increased | significantly improved functional recovery | significantly reduced axonal degeneration | prevented NFAT translocation | dramatically decreased | about 50% | significantly higher
